Source: patent publication US20240368139A1, “NOVEL MODULATORS OF EHMT1 AND EHMT2 AND THERAPEUTIC USE THEREOF” (Tango Therapeutics, Inc., priority 2021, published 2024)

Legend:
human EHMT1 982-1266 = biological target: T1, human EHMT1 982-1266 (Homo sapiens, UniProt Q9H9B1); assay: EHMT1 enzyme assay on histone peptide substrate (3H-SAM SPA); conditions: EHMT1 IC50, recombinant human EHMT1 982-1266, histone peptide substrate
T1 sequence (Q9H9B1 982-1266): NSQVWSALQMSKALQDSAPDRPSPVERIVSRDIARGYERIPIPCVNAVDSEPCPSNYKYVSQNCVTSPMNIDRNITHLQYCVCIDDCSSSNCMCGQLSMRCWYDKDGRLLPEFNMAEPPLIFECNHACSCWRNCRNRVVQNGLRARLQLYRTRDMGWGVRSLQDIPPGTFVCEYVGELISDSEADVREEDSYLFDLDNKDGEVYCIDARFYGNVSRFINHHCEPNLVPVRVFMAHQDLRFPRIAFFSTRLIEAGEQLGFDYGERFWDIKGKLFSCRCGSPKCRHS

H3K9me2 in HCT116 cells = assay: HCT116 H3K9me2 in-cell western assay; assay type: cell-based; conditions: Homo sapiens, HCT-116, 72 h, HCT116 cells, 72 hours incubation; read-out: H3K9me2 ICW IC50
Method in brief: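 H3K9me2 signal (800 nm) was normalized to DRAQ5 DNA stain (700 nm) in an in-cell western. Cells were fixed with paraformaldehyde and probed overnight at 4° C with primary antibody.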

hERG potassium channels = hERG potassium channels (Homo sapiens, UniProt Q12809); assay: In vitro hERG assay (SyncroPatch whole-cell recording); conditions: hERG IC50, SyncroPatch, room temperature
Procedure: CHO cells stably expressing hERG potassium channels from Sophion Biosciences were used for this test. The cells were cultured in a humidified and air-controlled (5% CO2) incubator at 37° C.
The CHO hERG Culture Medium consisted of 500 mL Ham's F12 (Invitrogen), 50 mL FBS (HyClone), 1 mL G418/Geneticin (Invitrogen, and 1 mL Hygromycin B (Invitrogen)
The CHO cells which were at least two days after plating and more than 75% confluent would be used for experiments. Before testing, cells were harvested using TrypLE and resuspended in the physiological solution at the room temperature.
For the electrophysiological recordings the following solutions were used (Table 5). The physiological solution and external solution were prepared at least one month. The intracellular solution was prepared in batches aliquoted, and stored at 4° C. until used.
Test compounds were dissolved in 100% DMSO to obtain stock solutions for different test concentrations. Then the stock solutions were further diluted into external solution to achieve final concentrations for testing. Visual check for precipitation was conducted before testing. Final DMSO concentration in external solution was not more than 0.30% for the test compounds.
Voltage command protocol: From this holding potential of −80 mV, the voltage was first stepped to −50 mV for 80 ms for leak subtraction, and then stepped to +20 mV for 4800 ms to open hERG channels. After that, the voltage was stepped back down to −50 mV for 5000 ms, causing a “rebound” or tail current, which was measured and collected for data analysis. Finally, the voltage was stepped back to the holding potential (−80 mV, 1000 ms). This voltage command protocol was repeated every 20000 msec. This command protocol was performed continuously during the test (vehicle control and test compound).
hERG SyncroPatch assay was conducted at room temperature. The Setup, Prime Chip, Catch and Seal Cells, Amplifier Settings, Voltage and Application Protocols were established with Biomek Software (Nanion). One addition of 40 μL of the vehicle was applied, followed by 300s for a baseline period. Then the doses of the compounds were added with 40 μL. The exposure of test compound at each concentration was no less than 300s. […] Five concentrations (0.30 μM, 1.00 μM, 3.00 μM, 10.00 μM and 30.00 μM) were tested for each compound. Minimum 2 replicates per concentration were obtained.
Within each well recording, percent of control values were calculated for each test compound concentration current response based on peak current in presence of reference control (current response/peak current)×100%. The Dose-Response curves were fit to the standard Hill equation as shown below:
Where X is the logarithm of concentration, Ipost cpd/Ipre cpa is the normalized peak current amplitude, Top is 1 and Bottom is equal to 0.
Curve-fitting and IC50 calculations were performed by GraphPad Prism 5.0.

human EHMT2 913-1193 = biological target: T2, human EHMT2 913-1193 (Homo sapiens, UniProt Q96KQ7); assay: EHMT2 enzyme assay on histone peptide substrate (3H-SAM SPA); conditions: EHMT2 IC50, recombinant human EHMT2 913-1193, histone peptide substrate
T2 sequence (Q96KQ7 913-1193): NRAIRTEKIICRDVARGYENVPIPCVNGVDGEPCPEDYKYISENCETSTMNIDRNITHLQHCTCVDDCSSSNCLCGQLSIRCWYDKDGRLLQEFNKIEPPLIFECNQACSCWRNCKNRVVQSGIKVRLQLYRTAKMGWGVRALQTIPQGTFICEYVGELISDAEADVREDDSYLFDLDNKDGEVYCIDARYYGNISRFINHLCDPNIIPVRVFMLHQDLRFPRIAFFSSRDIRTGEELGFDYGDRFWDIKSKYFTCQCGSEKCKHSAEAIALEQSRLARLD

Chain of hERG potassium channels (Q12809 whole entry): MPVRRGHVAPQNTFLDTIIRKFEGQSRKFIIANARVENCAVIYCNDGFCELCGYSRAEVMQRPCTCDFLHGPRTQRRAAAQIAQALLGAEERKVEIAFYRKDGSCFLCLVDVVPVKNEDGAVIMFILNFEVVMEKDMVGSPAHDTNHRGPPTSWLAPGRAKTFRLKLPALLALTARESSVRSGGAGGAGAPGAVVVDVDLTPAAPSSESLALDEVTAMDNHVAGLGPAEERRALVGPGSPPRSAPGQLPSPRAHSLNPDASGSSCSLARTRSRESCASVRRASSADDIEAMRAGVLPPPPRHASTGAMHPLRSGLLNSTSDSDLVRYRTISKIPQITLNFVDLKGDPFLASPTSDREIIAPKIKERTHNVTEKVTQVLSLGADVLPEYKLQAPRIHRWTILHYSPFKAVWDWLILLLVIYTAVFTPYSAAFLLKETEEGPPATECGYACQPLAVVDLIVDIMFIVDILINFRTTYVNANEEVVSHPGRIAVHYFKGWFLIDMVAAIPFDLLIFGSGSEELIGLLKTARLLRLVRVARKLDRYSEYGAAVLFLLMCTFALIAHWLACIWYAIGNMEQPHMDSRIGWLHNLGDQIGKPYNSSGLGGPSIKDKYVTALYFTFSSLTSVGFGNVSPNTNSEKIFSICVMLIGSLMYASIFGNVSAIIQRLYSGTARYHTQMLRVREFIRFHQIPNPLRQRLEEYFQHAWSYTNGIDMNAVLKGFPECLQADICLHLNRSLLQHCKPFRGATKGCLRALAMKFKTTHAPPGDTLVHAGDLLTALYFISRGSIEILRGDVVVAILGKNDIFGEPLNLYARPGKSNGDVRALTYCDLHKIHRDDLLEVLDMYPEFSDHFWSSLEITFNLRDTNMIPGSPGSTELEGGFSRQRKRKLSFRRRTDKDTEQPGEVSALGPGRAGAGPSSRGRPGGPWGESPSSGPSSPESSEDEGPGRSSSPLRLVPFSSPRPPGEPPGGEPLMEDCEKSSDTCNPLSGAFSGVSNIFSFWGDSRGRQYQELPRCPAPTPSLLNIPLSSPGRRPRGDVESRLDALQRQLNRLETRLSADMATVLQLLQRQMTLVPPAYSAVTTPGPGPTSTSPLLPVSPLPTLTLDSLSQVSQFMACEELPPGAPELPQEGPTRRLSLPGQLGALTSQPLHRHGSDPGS

| Compound | IC50 (human EHMT1 982-1266) [µM] | IC50 (H3K9me2 in HCT116 cells) [µM] | IC50 (hERG potassium channels) [µM] | IC50 (human EHMT2 913-1193) [µM] |
| --- | --- | --- | --- | --- |
| CNc1cc(C(C)C)nc(Nc2cc3c(c(C4=CCN(C)CCC4)c2)OCC3)n1 [Compound 323] | 0.1 to 0.5 | 0.1 to 0.5 | 2 to 5 | 0.1 to 0.5 |
| COCCNc1cc(C)nc(Nc2cc3c(c(C4=CCN(C)CCC4)c2)OCC3)n1 [Compound 324] | 0.1 to 0.5 | 0.1 to 0.5 | 5 to 10 | 0.1 to 0.5 |
| Cc1cc(NC2CCC2)nc(Nc2cc3c(c(C4=CCNCCC4)c2)OCC3)n1 [Compound 325] | < 0.1 | 0.1 to 0.5 | 2 to 5 | 0.1 to 0.5 |
| CNc1cc(C(C)C)nc(Nc2cc3c(c(C4=CCNCCC4)c2)OCC3)n1 [Compound 326] | < 0.1 | < 0.1 | 2 to 5 | < 0.1 |
| COCCNc1cc(C)nc(Nc2cc3c(c(C4=CCNCCC4)c2)OCC3)n1 [Compound 327] | < 0.1 | < 0.1 | > 10 | < 0.1 |
| CNc1cc(C)nc(Nc2cc3c(c(C4=CCNCCC4)c2F)OCC3)c1 [Compound 328] | < 0.1 | < 0.1 | > 10 | < 0.1 |
| CNc1cc(C)nc(Nc2cc3c(c(C4C[C@@H]5CN(C)C[C@@H]5C4)c2)OCCO3)n1 (stereo partly drawn) [Compound 329] | 0.1 to 0.5 | 0.1 to 0.5 | > 10 | 0.5 to 2 |
| CNc1ccnc(Nc2cc3c(c(C4=CCNCCC4)c2)OCC3)n1 [Compound 330] | < 0.1 | < 0.1 | > 10 | < 0.1 |
| CNc1ccnc(Nc2cc3c(c(C4=CCN(C)CCC4)c2)OCC3)n1 [Compound 331] | < 0.1 | < 0.1 | > 10 | 0.1 to 0.5 |
| CNc1cc(C)nc(Nc2cc3c(c(C4=CCNCCC4)c2)CCO3)n1 [Compound 332] | 0.1 to 0.5 | 0.1 to 0.5 | > 10 | 0.1 to 0.5 |
| CNc1cc(C)nc(Nc2cc3c(c(C4C[C@H]5CNC[C@H]5C4)c2)OCCO3)n1 (stereo partly drawn) [Compound 334] | 0.1 to 0.5 | 0.1 to 0.5 | > 10 | 0.5 to 2 |
| CNc1ccnc(Nc2cc3c(c(C4=CCN(C)CCC4)c2)OCO3)n1 [Compound 335] | 0.1 to 0.5 | 0.1 to 0.5 | 5 to 10 | 0.1 to 0.5 |
| CNc1ccnc(Nc2cc3c(c(C4=CCNCCC4)c2)OCO3)n1 [Compound 336] | < 0.1 | < 0.1 | 5 to 10 | < 0.1 |
| CNc1cc(C)nc(Nc2cc3c(c(C4CCCNCC4)c2)OCCC3)n1 (stereo not drawn) [Compound 341] | < 0.1 | 0.1 to 0.5 | > 10 | 0.1 to 0.5 |
| CNc1cc(C)nc(Nc2cc3c(c(C4CCCNCC4)c2)OCCO3)n1 (stereo not drawn) [Compound 348] | 0.1 to 0.5 | 0.1 to 0.5 | > 10 | 0.1 to 0.5 |
